Laboratory results: ChEMBL document CHEMBL4295262, “Evaluation of the utility of stem-cell derived cardiomyocytes for drug proarrhythmic potential” (2019)

Experiments:
[1] = (§1) Electrical activity assay on cell lines treated with a given drug. DMSO was used as a vehicle and a control, unblinded dofetilide was used as a control.; assay type: cell-based; set-up: APDc: unit not given here; settings: human, ipsc-cm
[2] = as §1; settings: human, ipsc-cm
[3] = as §1; assay type: ADME, cell-based; set-up: FPDc: unit not given here; settings: human, ipsc-cm
[4] = as §1; settings: human, ipsc-cm; remark: listed apart in the source
[5] = as §1; settings: human, ipsc-cm; remark: listed apart in the source
[6] = as §1; assay type: ADME, cell-based; settings: human, ipsc-cm, 0.001 µM; concentration (um) 0.001 uM
[7] = as §1; assay type: ADME, cell-based; set-up: FPDc: unit not given here; settings: human, ipsc-cm, 0.01 µM; concentration (um) 0.01 uM
[8] = as §1; assay type: ADME, cell-based; settings: human, ipsc-cm, 0.01 µM; concentration (um) 0.01 uM
[9] = 0.09507 µM, concentration (um) 0.0950736 uM
[10] = 0.3004 µM, concentration (um) 0.300433 uM
[11] = 0.9494 µM, concentration (um) 0.949367 uM
[12] = 0.01 µM, concentration (um) 0.01 uM
[13] = 0.1 µM, concentration (um) 0.1 uM
[14] = 10 µM, concentration (um) 10 uM
[15] = 3.169 µM, concentration (um) 3.16912 uM
[16] = 10.01 µM, concentration (um) 10.0144 uM
[17] = 31.65 µM, concentration (um) 31.6456 uM
[18] = 100 µM, concentration (um) 100 uM
[19] = 0.003169 µM, concentration (um) 0.00316912 uM
[20] = 0.01001 µM, concentration (um) 0.0100144 uM
[21] = 0.03165 µM, concentration (um) 0.0316456 uM

CN(C)CCCN1c2ccccc2Sc2ccc(Cl)cc21 [CHLORPROMAZINE]
APDc [1, 9]: 69.32 | FPD measurement [1, 9]: 69.32 FPDc | APDc [1, 10]: 63.65 | FPD measurement [1, 10]: 63.65 FPDc | APDc [1, 11]: 55.94 | FPD measurement [1, 11]: 55.94 FPDc | APDc ([1]; 3 µM, concentration (um) 3 uM): 58.51 | FPD measurement ([1]; 3 µM, concentration (um) 3 uM): 58.51 FPDc | FPD measurement ([2]; 0.09507 µM): 53.9 FPDc | FPDc ([2]; 0.09507 µM): 53.9 | FPD measurement ([2]; 0.3004 µM): 52.05 FPDc | FPDc ([2]; 0.3004 µM): 52.05 | FPD measurement ([2]; 0.9494 µM): 50.49 FPDc | FPDc ([2]; 0.9494 µM): 50.49 | FPD measurement ([2]; 3 µM): 44.91 FPDc | FPDc ([2]; 3 µM): 44.91 | FPDc [3, 9]: 0.04224 | FPDc [3, 10]: 0.04702 | FPDc [3, 11]: 0.04411 | FPD measurement ([3]; 3 µM, concentration (um) 3 uM): More Than Half The Wells Had A Quiescence Event Or Fpdc Readings Of 0 | FPDc ([3]; 3 µM, concentration (um) 3 uM): More Than Half The Wells Had A Quiescence Event Or Fpdc Readings Of 0

COc1ccc([C@@H]2Sc3ccccc3N(CCN(C)C)C(=O)[C@@H]2OC(C)=O)cc1 [DILTIAZEM]
APDc [1, 12]: 56.41 | FPD measurement [1, 12]: 56.41 FPDc | APDc [1, 13]: 49.22 | FPD measurement [1, 13]: 49.22 FPDc | APDc ([1]; 1 µM, concentration (um) 1 uM): 40.25 | FPD measurement ([1]; 1 µM, concentration (um) 1 uM): 40.25 FPDc | APDc [1, 14]: 32.58 | FPD measurement [1, 14]: 32.58 FPDc | FPD measurement ([2]; 0.01 µM): 53.63 FPDc | FPDc ([2]; 0.01 µM): 53.63 | FPD measurement ([2]; 0.1 µM): 45.42 FPDc | FPDc ([2]; 0.1 µM): 45.42 | FPD measurement ([2]; 1 µM): 28.2 FPDc | FPDc ([2]; 1 µM): 28.2 | FPD measurement ([2]; 10 µM): 13.87 FPDc | FPDc ([2]; 10 µM): 13.87 | FPDc [3, 12]: 0.0252 | FPD measurement [3, 13]: More Than Half The Wells Had A Quiescence Event Or Fpdc Readings Of 0 | FPDc [3, 13]: More Than Half The Wells Had A Quiescence Event Or Fpdc Readings Of 0 | FPD measurement ([3]; 1 µM, concentration (um) 1 uM): More Than Half The Wells Had A Quiescence Event Or Fpdc Readings Of 0 | FPDc ([3]; 1 µM, concentration (um) 1 uM): More Than Half The Wells Had A Quiescence Event Or Fpdc Readings Of 0 | FPD measurement [3, 14]: More Than Half The Wells Had A Quiescence Event Or Fpdc Readings Of 0 | FPDc [3, 14]: More Than Half The Wells Had A Quiescence Event Or Fpdc Readings Of 0

COCCc1ccc(OCC(O)CNC(C)C)cc1 (configuration not stated) [METOPROLOL]
APDc [1, 15]: 42.47 | FPD measurement [1, 15]: 42.47 FPDc | APDc [1, 16]: 43.54 | FPD measurement [1, 16]: 43.54 FPDc | APDc [1, 17]: 43.18 | FPD measurement [1, 17]: 43.18 FPDc | APDc [1, 18]: 55.84 | FPD measurement [1, 18]: 55.84 FPDc | FPDc ([4]; 3.169 µM): 61.11 | FPDc ([4]; 10.01 µM): 74.38 | FPDc ([4]; 31.65 µM): 72.23 | FPDc ([4]; 100 µM): 68 | FPD measurement ([5]; 3.169 µM): 1 Values Out Of 1 Were Excluded Due To Quiescence Or 0 Fpdc | FPDc ([5]; 3.169 µM): 1 Values Out Of 1 Were Excluded Due To Quiescence Or 0 Fpdc | FPD measurement ([5]; 10.01 µM): 1 Values Out Of 1 Were Excluded Due To Quiescence Or 0 Fpdc | FPDc ([5]; 10.01 µM): 1 Values Out Of 1 Were Excluded Due To Quiescence Or 0 Fpdc | FPD measurement ([5]; 31.65 µM): 1 Values Out Of 1 Were Excluded Due To Quiescence Or 0 Fpdc | FPDc ([5]; 31.65 µM): 1 Values Out Of 1 Were Excluded Due To Quiescence Or 0 Fpdc | FPD measurement ([5]; 100 µM): 1 Values Out Of 1 Were Excluded Due To Quiescence Or 0 Fpdc | FPDc ([5]; 100 µM): 1 Values Out Of 1 Were Excluded Due To Quiescence Or 0 Fpdc | FPD measurement ([2]; 3.169 µM): 54.76 FPDc | FPDc ([2]; 3.169 µM): 54.76 | FPD measurement ([2]; 10.01 µM): 55.07 FPDc | FPDc ([2]; 10.01 µM): 55.07 | FPD measurement ([2]; 31.65 µM): 53.88 FPDc | FPDc ([2]; 31.65 µM): 53.88 | FPD measurement ([2]; 100 µM): 71.03 FPDc | FPDc ([2]; 100 µM): 71.03 | FPDc [3, 15]: 0.03359 | FPDc [3, 16]: 0.03613 | FPDc [3, 17]: 0.03258 | FPD measurement [3, 18]: More Than Half The Wells Had A Quiescence Event Or Fpdc Readings Of 0 | FPDc [3, 18]: More Than Half The Wells Had A Quiescence Event Or Fpdc Readings Of 0

CN1CCN(CCCCN2C(=O)CN(/N=C/c3ccc(-c4ccc(Cl)cc4)o3)C2=O)CC1 [AZIMILIDE]
APDc [1, 12]: 52.41 | FPD measurement [1, 12]: 52.41 FPDc | APDc [1, 13]: 47.87 | FPD measurement [1, 13]: 47.87 FPDc | APDc ([1]; 1 µM, concentration (um) 1 uM): 63.58 | FPD measurement ([1]; 1 µM, concentration (um) 1 uM): 63.58 FPDc | APDc [1, 14]: 121.3 | FPD measurement [1, 14]: 121.3 FPDc | FPDc ([4]; 0.01 µM): 73.84 | FPDc ([4]; 0.1 µM): 69.12 | FPDc ([4]; 1 µM): More Than Half The Wells Had A Quiescence Event Or Fpdc Readings Of 0 | FPDc ([4]; 10 µM): More Than Half The Wells Had A Quiescence Event Or Fpdc Readings Of 0 | FPD measurement ([2]; 0.01 µM): 55.32 FPDc | FPDc ([2]; 0.01 µM): 55.32 | FPD measurement ([2]; 0.1 µM): 56.52 FPDc | FPDc ([2]; 0.1 µM): 56.52 | FPD measurement ([2]; 1 µM): 77.06 FPDc | FPDc ([2]; 1 µM): 77.06 | FPD measurement ([2]; 10 µM): 5 Values Out Of 5 Were Excluded Due To Quiescence Or 0 Fpdc | FPDc ([2]; 10 µM): 5 Values Out Of 5 Were Excluded Due To Quiescence Or 0 Fpdc | FPDc [3, 12]: 0.03892 | FPDc [3, 13]: 0.04044 | FPDc ([3]; 1 µM, concentration (um) 1 uM): 0.04651 | FPDc [3, 14]: 0.06031

CC(C)COCC(CN(Cc1ccccc1)c1ccccc1)N1CCCC1 (configuration not stated) [BEPRIDIL]
APDc [1, 12]: 52.45 | FPD measurement [1, 12]: 52.45 FPDc | APDc [1, 13]: 43.71 | FPD measurement [1, 13]: 43.71 FPDc | APDc ([1]; 1 µM, concentration (um) 1 uM): 57.33 | FPD measurement ([1]; 1 µM, concentration (um) 1 uM): 57.33 FPDc | FPDc ([4]; 0.01 µM): 70.33 | FPDc ([4]; 0.1 µM): 77.75 | FPD measurement ([4]; 1 µM): 5 Values Out Of 5 Were Excluded Due To Quiescence Or 0 Apdc | FPDc ([4]; 1 µM): 78.3 | FPD measurement ([4]; 10 µM): More Than Half The Wells Had A Quiescence Event Or Apdc Readings Of 0 | FPDc ([4]; 10 µM): More Than Half The Wells Had A Quiescence Event Or Fpdc Readings Of 0 | FPDc [3, 12]: 0.04073 | FPDc [3, 13]: 0.0376 | FPDc ([3]; 1 µM, concentration (um) 1 uM): 0.04541 | FPD measurement [3, 14]: More Than Half The Wells Had A Quiescence Event Or Fpdc Readings Of 0 | FPDc [3, 14]: More Than Half The Wells Had A Quiescence Event Or Fpdc Readings Of 0

C[S+](C)[O-] [DIMETHYL SULFOXIDE]
FPD measurement [6]: 49.93 FPDc | FPDc [6]: 72 Values Out Of 72 Were Excluded Due To Quiescence Or 0 Fpdc | FPDc [7]: 50.28 | FPDc ([4]; 1 µM): 70.37 | FPD measurement [8]: 25 Values Out Of 25 Were Excluded Due To Quiescence Or 0 Apdc | FPDc [8]: 20.63 | FPD measurement ([2]; 0.001 µM): 55.35 FPDc | FPDc ([2]; 0.001 µM): 55.35 | FPDc ([3]; 0.001 µM, concentration (um) 0.001 uM): 0.03393

COc1cc(N)c(Cl)cc1C(=O)NC1CCN(CCCOc2ccc(F)cc2)CC1OC (configuration not stated) [CISAPRIDE]
APDc [1, 19]: 60.87 | FPD measurement [1, 19]: 60.87 FPDc | APDc [1, 20]: 62.7 | FPD measurement [1, 20]: 62.7 FPDc | APDc [1, 21]: 58.7 | FPD measurement [1, 21]: 58.7 FPDc | APDc [1, 13]: 92.05 | FPD measurement [1, 13]: 92.05 FPDc | FPD measurement ([5]; 0.003169 µM): 1 Values Out Of 1 Were Excluded Due To Quiescence Or 0 Fpdc | FPDc ([5]; 0.003169 µM): 1 Values Out Of 1 Were Excluded Due To Quiescence Or 0 Fpdc | FPD measurement ([5]; 0.01001 µM): 1 Values Out Of 1 Were Excluded Due To Quiescence Or 0 Fpdc | FPDc ([5]; 0.01001 µM): 1 Values Out Of 1 Were Excluded Due To Quiescence Or 0 Fpdc | FPD measurement ([5]; 0.03165 µM): 1 Values Out Of 1 Were Excluded Due To Quiescence Or 0 Fpdc | FPDc ([5]; 0.03165 µM): 1 Values Out Of 1 Were Excluded Due To Quiescence Or 0 Fpdc | FPD measurement ([5]; 0.1 µM): 1 Values Out Of 1 Were Excluded Due To Quiescence Or 0 Fpdc | FPDc ([5]; 0.1 µM): 1 Values Out Of 1 Were Excluded Due To Quiescence Or 0 Fpdc | FPDc [3, 19]: 0.04125 | FPDc [3, 20]: 0.03941 | FPDc [3, 21]: 0.04671 | FPDc [3, 13]: 0.04762
